Measured values from patent US12492202B2, “Macrocyclic PAD4 inhibitors useful as immunosuppressant” (BRISTOL-MYERS SQUIBB COMPANY, priority 2020, dated 2025).

Biological target: human PAD4 (hPAD4) (Homo sapiens (Human), UniProt Q9UM07)
Assay: RFMS Human PAD4 Functional Assay
Assay type: biochemical
Settings: rapid-fire mass spectrum (RFMS) assay; 5 nM hPAD4 enzyme, 250 μM BAEE, 30 min preincubation at 37° C.
Description: RFMS Human PAD4 Functional Assay: Compounds were solubilized in 100% DMSO to achieve a 10 mM compound concentration. Compound stock solutions were stored at RT. A series of dilutions were prepared in DMSO and mixed 8 times with 20 μL mixing volume. Final top concentration of compound in the assay is 50 μM. Final assay conditions were as follows: • Reaction volume: 26 μl • Assay buffer: 25 mM hepes, pH 7.5, 5 mM NaCl, 1 mM DTT, 0.2 mg/ml BSA, 0.01% CHAPS, 50 μM Calcium, and 5 μM TPEN • Final concentrations: 5 nM hPAD4 enzyme, 250 μM BAEE, and 0.5% DMSO • Total incubation time: 30 mins compound and enzyme preincubation at 37° C., 90 min enzyme/substrate reaction, 30 min reaction with phenyl glyoxal at 37° C. • Stop solution: 40 μl 5% TCA in ACN 0.13 μL of compound solution was added to 13 μL of 10 nM PAD4 in assay buffer. After 30 min 13 μl of 500 μM of BAEE was added in 25 mM hepes, pH 7.5, 5 mM NaCl, 1 mM DTT, 0.2 mg/ml BSA, 0.01% CHAPS, 50 μM Calcium, 5 μM TPEN was added and the reaction incubated for 90 min at 37° C. The enzymatic reaction was quenched by addition of 15 μl of 6.1N TCA, 100% Final Concentration is 20%, 35 μl of 8.5 mM phenyl glyoxal (final concentration 4 mM) is then added and the reaction is incubated for 30 min at 37° C. After 30 minutes the plates are spun down to remove all precipitate. The enzyme reaction was quenched with an equal volume of methanol containing internal standard (modified citrulline). Samples were loaded onto the Rapid Fire RF300 system (Agilent) wherein they were first sipped for 1000 ms and then directly loaded to a C18 separations cartridge using a mixture of acetonitrile containing 0.01% formic acid for 3000 ms desalting. The flow rate of the mobile phase was 1.5 ml/min. Once the samples were eluted from the cartridge, a mobile phase of acetonitrile containing 0.01% formic acid was used to move the samples into the mass spectrometer for 4000 ms at a flow rate of 1.25 ml/min/Sciex API5500 triple quadrupole mass spectrometer (Applied Biosystems) equipped with ESI was used to analyze the peptidyl citrulline and internal standard ions. MRM transition of product and internal standard were monitored at m/z 424.5 to 350.4 and m/z 293 to 247 respectively. The dwell time for each transition was set at 200 ms, and the ESI voltage was used at 5500 with a source temperature of 400° C. Extracted ion peaks for each transition were integrated using the Rapid Fire Integrator software. Peak area of analyte was normalized with internal standard).

Chain of human PAD4 (hPAD4) (Q9UM07 whole entry): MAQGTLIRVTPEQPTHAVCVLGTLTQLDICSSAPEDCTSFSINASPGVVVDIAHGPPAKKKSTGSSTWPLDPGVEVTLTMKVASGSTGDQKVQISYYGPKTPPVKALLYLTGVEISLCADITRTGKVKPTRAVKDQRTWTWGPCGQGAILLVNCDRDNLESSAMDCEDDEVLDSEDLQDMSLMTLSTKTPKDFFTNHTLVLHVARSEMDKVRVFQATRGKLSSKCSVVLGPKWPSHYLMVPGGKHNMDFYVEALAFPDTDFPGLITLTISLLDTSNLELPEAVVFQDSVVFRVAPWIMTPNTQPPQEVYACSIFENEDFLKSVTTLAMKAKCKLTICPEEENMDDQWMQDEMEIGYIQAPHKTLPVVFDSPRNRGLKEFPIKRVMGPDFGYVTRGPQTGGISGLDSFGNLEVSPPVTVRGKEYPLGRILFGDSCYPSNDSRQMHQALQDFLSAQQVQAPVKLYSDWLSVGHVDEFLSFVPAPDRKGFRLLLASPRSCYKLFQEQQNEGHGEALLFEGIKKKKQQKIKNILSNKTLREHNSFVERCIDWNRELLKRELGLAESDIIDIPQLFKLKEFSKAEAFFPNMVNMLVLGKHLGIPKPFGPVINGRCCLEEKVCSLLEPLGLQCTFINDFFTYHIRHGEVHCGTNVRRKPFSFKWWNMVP

Compound | IC50 [nM]
COc1cc(C(=O)N2C[C@H]3CC[C@@H]2[C@@H]3N)cc2nc3n(c12)Cc1cncc(c1)-c1ccccc1CCCCn1c-3cc2ccc(C(C)(C)O)nc21 [Example 53, ((1R,4R,7R)-7-Amino-2-azabicyclo[2.2.1]heptan-2-yl)(1^6-(2-hydroxypropan-2-yl)-2^7-methoxy-1^1H,2^1H-1,2(2,1)-dipyrrolo[2,3-b]pyridina-4(3,5)-pyridina-5(1,2)-benzenacyclononaphane-2^5-yl)methanone] | 14
COc1cc(C(=O)N2C[C@H](N)C[C@@H](F)C2)cc2nc3n(c12)Cc1cccc(c1)-c1ccccc1OCCCn1c-3cc2cccnc21 [Example 33, ((3R,5R)-3-amino-5-fluoropiperidin-1-yl)(2^7-methoxy-1^1H,2^1H-6-oxa-1,2(2,1)-dipyrrolo[2,3-b]pyridina-4(1,3),5(1,2)-dibenzenacyclononaphane-2^5-yl)methanone] | 120
COc1cc(C(=O)N2C[C@H]3CC[C@@H]2[C@@H]3N)cc2nc3n(c12)CC1CC(=O)N(C1)c1ccccc1CCCCn1c-3cc2cccnc21 (single isomer, unassigned) [Example 37] | 19
